Here are results for 1 compound from patent US20080146555A1, “Uses of Kinase Inhibitors and Compositions Thereof” (GPC Biotech, Inc, priority 2004, published 2008).

Assay [1] concerns HCT-116 cells. Kind of assay: Clonogenic survival assay with HCT-116 cells. The format is cell-based. The following applies: Homo sapiens. The method, then:
This assay was used to determine the concentration of a compound that results in irreversible loss of viability after a specified period of exposure. Essentially, cells are exposed to compound for a period of […], and are then transferred to compound-free growth medium. After continued incubation in the compound-free medium for a number of days, the number of colonies recovered is counted as an estimate of the number of surviving cells.
Media (RPMI-1640, 10% FCS, pen/strep) was pre-warmed to 37° C. in a water bath. Cells were incubated and grown at 37° C., 5% CO2. Cells were recovered by trypsinization from sub-confluent plates and counted using a hemocytometer. 1×10^4 cells were plated in 25 mls of media in a 15 cm tissue culture dish. […] were set up for each test compound, and were incubated overnight at 37° C. The compound was diluted into media at 7 concentrations and the media on the cells was replaced with that containing the test compound. Two plates were set up for each concentration of the compound to be tested, as well as two control plates without compound. Plates were incubated as above for […], media was removed and replaced with fresh media, and the plates were incubated an additional 7 days and washed with PBS. Colonies were stained with crystal violet solution (0.4% crystal violet, 20% ethanol) for 5 minutes, washed twice with distilled water, and counted.

Assay [2] concerns normal human fibroblast, IMR90. In words: Calcein AM viability assay, IMR90. Type of assay: cell-based. The following applies: IMR-90, Calcein AM, 72 h. The procedure: The potency of the subject kinase inhibitors, as measured by loss of cellular viability, was determined with the Calcein AM assay (Molecular Probes). Calcein AM is a substrate of intracellular esterases, which is cleaved only in viable cells to generate a fluorescent product that can be quantified with a fluorescent plate reader. The fluorescent signal is proportional to the number of viable cells, and thus loss of signal in response to the exposure of cells to the subject kinase inhibitors correlates with a loss of viability. This assay not only distinguishes cell cycle arrest, in which cells may still by viable, from loss of viability, and is thus well suited for the evaluation of the subject kinase inhibitors. A compound that is a potent cytotoxic agent may cause significant loss of cell viability in such an assay.
Cellular IC50's were determined in the human colorectal carcinoma cell line, HCT-116, and the normal human fibroblast, IMR90. Protein adjusted IC50's were also determined in HCT-116. Results of such viability assays are presented in Table 2 (HCT-116 (viability/protein adjusted) and IMR-90). IC50's (μM, non-protein adjusted) for the viability assay against HCT-116 cells are shown for further compounds of the invention in Table 4.
HCT-116 or IMR90 cells were recovered from sub-confluent plates by trypsinization and 1,000 or 4,000 cells, respectively, were plated in 24-well dishes and incubated overnight at 37° C., 5% CO2. HCT-116 cells were cultured in RPMI-1640, 10% FCS, and IMR90 cells were cultured in Minimum Essential Medium-alpha, 10% FCS. After overnight incubation to allow adherence, the media was aspirated from each well and replaced with media containing a test compound at a concentration from 0 to 250 nM, spanning a total of 7 doses. The plates were returned to the incubator and cultured for an additional 72 hours (3 days). […] After 72-hours incubation with the test compound, the cells were washed twice with 1×PBS, taking special care to remove all residual buffer.
A 5 μM Calcein AM solution was prepared by dissolving a 50 μg aliquot of Calcein (Molecular Probes catalog #C3100) in 50 μl DMSO. After the Calcein had completely dissolved (10 minutes at room temperature), it was diluted into 10 ml PBS. Calcein/PBS (0.5 ml) was added to each well. The plates were incubated for 75 minutes at 37° C. (protected from light) and the fluorescent signal was read on a fluorescent plate reader (excitation 485/20 and emission 530/25).

Assay [3] concerns HCT-116 cells. In words: Calcein AM viability assay, HCT-116. Type of assay: cell-based. The settings on record: Homo sapiens. The gist of the method: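 Cells (HCT-116 1,000, IMR90 4,000 per well) adhered overnight, then received 7 doses from 0 to 250 nM for 72 h at 37 °C. Viability read as calcein fluorescence after 75 min with Calcein AM; IC50 values, with protein-adjusted values also obtained in HCT-116.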

Assay [4] concerns the target protein kinase C (mixed isozymes). Kind of assay: Protein kinase C TCA precipitation assay. The settings on record: Table 3; read-out: PKC IC50. Type of assay: biochemical, rat. The procedure:
Enzymes: Cdc2/cyclin B was obtained from commercial sources. Cdk2/his-cyclin Eshort was expressed in Sf9 cells. Cdk2/cyclin A, cdk4/cyclin D1, and cdk6/cyclin D2 were expressed in Sf9 cells. Protein kinase A (catalytic subunit, from bovine heart) and protein kinase C (mixed isozymes from rat brain) were obtained from commercial sources.
Protein kinase C and protein kinase A were assayed using a TCA precipitation assay with Histone H1 as a substrate. For protein kinase A, the final assay contained 50 mM Tris, 10 mM MgCl2, 1 mM dithiothreitol, pH 7.5, 12 μM adenosine triphosphate, 10% (v/v) dimethylsulfoxide (from compounds), 20 μg Histone H1, 2 μCi [γ-^32P] adenosine triphosphate, 0.2 U protein kinase A in a 100 μL assay. A protein kinase C assay contained 50 mM Tris, 10 mM MgCl2, 1 mM dithiothreitol, 0.8 mM CaCl2, pH 7.5, 5 μM adenosine triphosphate, 10% (v/v) dimethylsulfoxide (from compounds), 20 μg Histone H1, 2 μCi [γ-^32P] adenosine triphosphate, 0.01 U protein kinase C in a 50 μL assay. The assays were started by the addition of enzyme, allowed to react for 10 min at 30° C., and stopped by adding 0.4 volumes of 237 mM disodium ethylenediamine tetraacetate, 105 mM adenosine triphosphate, pH 8.0. […] The filters were washed ten times with 25% (w/v) trichloroacetic acid, and the amount of incorporated [^32P]phosphate was determined by adding 100 μl Microscint and scintillation counting.

Assay [5] concerns NCI panel of 60 cell lines. In words: cells. The following applies: Homo sapiens, 60 cell, 48 h, read-out: NCI panel MG-MID (Mean-Graph Mid-point, average IC50 over panel), 48 h, SRB; IC50 <10 nM counted as 10 nM. An excerpt:
(§1) The evaluation of compounds at the National Cancer Institute in their panel of 60 cell lines provides a wealth of information regarding efficacy in a wide range of tumor types and genetic backgrounds. Included within this panel are cell lines derived from leukemia, melanoma and cancers of the lung, colon, brain, ovary, breast, prostate and kidney. Use of this panel provides a measure of the efficacy of compounds in cells with alterations in many genes that are associated with neoplastic transformation including p53 and Her2/Neu as well as those involved in metabolism and those which confer multi-drug resistance. The data generated in these cell lines with the protocol described below can be used to evaluate the activity of compounds.
(§2) Cells were grown in RPMI-1640 10% FCS and plated in 96 well micro-titer plates at densities ranging from 5,000 to 40,000 cells/well. The plates were incubated for 24 hours at 37° C., 5% CO2 for 24 hours. Media containing twice the desired final concentration of the compound (5 doses spanning 4 logs) was prepared and 100 μl was added to each well containing 100 μl media plus cells to yield the desired final concentration. The plates were then incubated for an additional 48 hours.
(§3) The effect of the compound on cellular viability was determined with the Sulforhodamine B (SRB) assay, which measures total protein. Cells were fixed with cold TCA to a final concentration of 10% and incubated at 4° C. for 60 minutes. The supernatant was discarded and the plates were washed five times with water and air-dried. SRB solution at […] in 1% acetic acid was added to each well and the plates were incubated for 10 minutes at room temperature. The plates were washed five times with 1% acetic acid and air-dried. The bound stain was solubilized with 10 mM trizma base and the absorbance was read on a plate reader at […].

Assay [6] concerns adriamycin resistant cell line (ADR-res). Kind of assay: NCI panel, adriamycin resistant cell line, SRB assay. The format is cell-based. The following applies: Homo sapiens, 48 h.
Excerpt: as §1, §2, §3
In general terms: The SRB assay estimates cell density from bound dye.

With `CC(C)N1CCN(CCOc2ccc(-c3[nH]nc4c3C(=O)c3c(NC(=O)NN5CCOCC5)cccc3-4)cc2)CC1` [E], the IC50 was less than 100 nM in the assay on HCT-116 cells [1] (24 h exposure, read-out: HCT-116 IC50 Clonogenic 24 h); less than 100 nM in the assay with HCT-116 cells [1] (72 h exposure, read-out: HCT-116 IC50 Clonogenic 72 h); less than 100 nM in assay [2]; less than 100 nM with HCT-116 cells [3] (HCT-116, 72 h, Calcein AM, 72 h, read-out: HCT-116 IC50 Viability); less than 1000 nM in the assay with HCT-116 cells [3] (HCT-116, plus 1 mg/ml alpha acidic glycoprotein and 45 mg/ml human serum albumin, read-out: HCT-116 IC50 Protein adjusted); less than 10000 nM in assay [4]. Further, the concentration for half-maximal inhibition (IC50) is less than 100 nM in assay [5] and less than 1000 nM in assay [6].

A word on the IC50: it is the concentration that gives 50% inhibition.
